Six molecules from patent US6566140B2, “Inhibition of coagulation in blood and blood products” (University of Vermont and State Agriculture College, priority 1998, dated 2003) can be followed below.

The subject of assay [1] is tissue factor initiated clotting in whole blood. Briefly: tissue factor dependent clotting assay in minimally altered whole blood, contact pathway suppressed with CTI, Hemochron ACT instrument. The assay is classed as cell-based, human. The source says:
This assay uses an anti-coagulation sufficient amount of CTI to inhibit clotting in minimally altered whole blood. The assay is more particularly referred to herein as “tissue factor dependent clotting assay” or similar phrase. The assay is particularly useful for monitoring coagulation in whole or minimally altered whole blood. As an example, the assay is especially useful as a novel bedside tool that permits improved therapuetic assessment including standard antithrombotic and antiplatelet therapies. The assay should also facilitate improved dose selection, titration and monitoring of multicomponent antithrombotic, antiplatelet, and fibrinolytic treatment.
Blood samples were obtained from healthy individuals and the contact pathway of coagulation was inhibited with corn trypsin inhibitor(a specific factor XIIa inhibitor without effect on other coagulation factors.). Clotting was initiated with relipidated tissue factor and detected with a Hemochron ACT instrument. Results were reproducible with samples from 20 healthy volunteers (mean time to clot=118±9 seconds). In other studies, blood was exposed to pharmacologic concentrations of antithrombotic and antiplatelet agents in vitro. […] Additive effects of antiplatelet agents were readily detectable in contrast to the case with aPTT assays. Thus, addition of 3 μg/ml abciximab to 0.1 anti-IIa/Xa U/ml of heparin and to 0.4 anti-Xa U/ml of enoxaparin prolonged the times to clot by 62 and 52 seconds, respectively (p<0.05 for each).
Blood was harvested between 0900 and 1200 hours. Phlebotomies were performed with 19 gauge butterfly needles and a two syringe technique with which the first three ml of blood were discarded. Blood samples were drawn into syringes containing corn trypsin inhibitor (CTI, Enzyme Research Laboratories, South Bend, Ind.) alone in concentrations ranging from 32 to 300 μg/ml or in combination with selected pharmacologic concentrations of heparin (0.1, 0.25 and 0.4 anti-IIa/Xa U/ml), enoxaparin (0.4 and 0.8 anti-Xa U/ml, Rhone-Poulenc Rorer), hirudin ([…], Sigma), recombinant tick anticoagulant peptide (rTAP, 0.4 anti-Xa U/ml, kindly provided by Corvass International), or abciximab (3 μg/ml, Eli Lilly). The concentrations of heparin, enoxaparin and abciximab were chosen to simulate those attained in clinical practice and equivalent anti-IIa and anti-Xa concentrations of hirudin and rTAP -were chosen. Final volumes were 1 part anticoagulant to 9 parts blood.
A 400 μl aliguot of blood was added to a K-resin ACT tube kindly provided by International Technidyne without the glass beads traditionally used to activate the contact pathway. Lipidated tissue factor (1-60 pM, American Diagnostica, Greenwich, Conn.) was added to K-resin tubes before addition of blood.
The K-resin tubes containing tissue factor and blood were placed promptly in a Hemochron ACT instrument. The time to clot was detected by the displacement of a dependent magnet within the rotating tube when fibrin strands formed. The blood was maintained at 37° C. throughout the assay procedure.

The test system of assay [2] is aPTT. Briefly: aPTT of blood exposed to antithrombotic and antiplatelet agents. The assay is classed as biochemical, human. The protocol: Blood was harvested between 0900 and 1200 hours. Phlebotomies were performed with 19 gauge butterfly needles and a two syringe technique with which the first three ml of blood were discarded. […] The concentrations of heparin, enoxaparin and abciximab were chosen to simulate those attained in clinical practice and equivalent anti-IIa and anti-Xa concentrations of hirudin and rTAP -were chosen. Final volumes were 1 part anticoagulant to 9 parts blood.

[3] abbreviates: abciximab 3 μg/ml added to 0.1 anti-IIa/Xa U/ml heparin.
Where [4] appears, read: abciximab 3 μg/ml added to 0.4 anti-Xa U/ml enoxaparin.

Several values for one entry are separate records, joined by “and”; a condition that tells them apart may be missing. Identical values can stand only once. Entries after “also recorded” stand apart in the source; their conditions may differ.

Turning to enoxaparin, the “effect on the time to clot” value in assay [1] (enoxaparin 0.4 and 0.8 anti-Xa U/ml, 200 μg/ml CTI, 20 pM tissue factor) is listed as “increased with increasing concentrations”; in assay [1] (enoxaparin 0.4 and 0.8 anti-Xa U/ml, 200 μg/ml CTI, 20 pM tissue factor, listed as Enoxaparin), “prolonged”. Moreover, the “increase of the time to clot” value in assay [1] (enoxaparin 0.4 anti-Xa U/ml) was 46 s. Besides, the “effect on the aPTT” value in assay [2] (enoxaparin 0.4 and 0.8 anti-Xa U/ml) is recorded as “increased with increasing concentrations”; in assay [2] (enoxaparin 0.4 and 0.8 anti-Xa U/ml, listed as Enoxaparin) it was “prolonged”. In addition, the “increase of the aPTT” value in assay [2] (enoxaparin 0.4 anti-Xa U/ml) came to 15 s.

Regarding heparin, the “increase of the time to clot” value in assay [1] (heparin 0.1 anti-IIa/Xa U/ml) is 41 s. Moreover, the “effect on the time to clot” value is “prolonged with increasing concentrations” in assay [1] (heparin 0.25 and 0.4 anti-IIa/Xa U/ml, 200 μg/ml CTI, 20 pM tissue factor); “prolonged” in assay [1] (heparin 0.25 and 0.4 anti-IIa/Xa U/ml, 200 μg/ml CTI, 20 pM tissue factor, listed as Heparin). The “increase of the aPTT” value in assay [2] (heparin 0.1 anti-IIa/Xa U/ml) came out at 34 s. For the same molecule, the “effect on the aPTT” value was “prolonged with increasing concentrations” in assay [2] (heparin 0.25 and 0.4 anti-IIa/Xa U/ml); “prolonged” in assay [2] (heparin 0.25 and 0.4 anti-IIa/Xa U/ml, listed as Heparin).

As to hirudin, in assay [1] (hirudin 0.4 and 0.8 anti-IIa U/ml, 200 μg/ml CTI, 20 pM tissue factor), the “effect on the time to clot” value is “prolonged the time to clot at each concentration tested”. In addition, the “prolongation of the time to clot” value in assay [1] (hirudin 0.4 anti-IIa U/ml, 200 μg/ml CTI, tissue factor initiated) was 21 s; in assay [1] (hirudin 0.8 U/ml, 200 μg/ml CTI, 20 pM tissue factor) it was 37 s. The “prolongation of the aPTT” value in assay [2] (hirudin 0.4 anti-IIa U/ml) stood at 3 s; in assay [2] (hirudin 0.8 U/ml), 16 s. Moreover, the “effect on the aPTT” value is “significantly prolonged only with the higher concentration; also recorded: detected only with 0.8 U/ml; also recorded: not affected” in assay [2] (hirudin 0.4 anti-IIa U/ml (versus 0.8 U/ml)) and “without prolonging the aPTT” in assay [2] (hirudin 0.4 anti-IIa U/ml (versus 0.8 U/ml), listed as Hirudin).

Take “rTAP: recombinant tick anticoagulant peptide, a specific inhibitor of factor Xa (YNRLCIKPRDWIDECDSNEGGERAYFRNGKGGCDSFWICPEDHTGADYYSSYRDCFNACI; UniProt P17726 1-60, looked up)”: the “effect on the time to clot” value in assay [1] (rTAP 0.4 anti-Xa U/ml, 200 μg/ml CTI, 20 pM tissue factor) is listed as “prolonged the time to clot”. The “prolongation of the time to clot” value in assay [1] (rTAP 0.4 anti-Xa U/ml, 200 μg/ml CTI, tissue factor initiated) turned out to be 229 s. Moreover, the “effect on the aPTT” value in assay [2] (rTAP 0.4 anti-Xa U/ml) is reported as “no effect; also recorded: not affected”; in assay [2] (rTAP 0.4 anti-Xa U/ml, listed as tick anticoagulant peptide) it was “without prolonging the aPTT”. The “prolongation of the aPTT” value in assay [2] (tick anticoagulant peptide 0.4 anti-Xa U/ml) stood at 3 s.

B1: lipidated tissue factor: lipidated tissue factor (American Diagnostica), initiator of clotting (protein, UniProt P13726 33-295, looked up)
Tissue factor: SGTTNTVAAYNLTWKSTNFKTILEWEPKPVNQVYTVQISTKSGDWKSKCFYTTDTECDLTDEIVKDVKQTYLARVFSYPAGNVESTGSAGEPLYENSPEFTPYLETNLGQPTIQSFEQVGTKVNVTVEDERTLVRRNNTFLSLRDVFGKDLIYTLYYWKSSSSGKKTAKTNTNEFLIDVDKGENYCFSVQAVIPSRTVNRKSTDSPVECMGQEKGEFREIFYIIGAVVFVVIILVIILAISLHKCRKAGVGQSWKENSPLNVS
modifications: lipidated
notes: lipidated tissue factor (American Diagnostica), initiator of clotting
Take B1: the “effect on the time to clot” value in assay [1] (lipidated tissue factor 1.0 to 60 pM, 12 subjects) was “concentration dependent decrease in the time to clot”.

B2: abciximab (antibody, chains of the INN, looked up, V domains shown)
VH: EVQLQQSGTVLARPGASVKMSCEASGYTFTNYWMHWVKQRPGQGLEWIGAIYPGNSDTSYIQKFKGKAKLTAVTSTTSVYMELSSLTNEDSAVYYCTLYDGYYVFAYWGQGTLVTVSA
VL: EIVLTQSPVTLSVTPGDSVSLSCRASRDISNNLHWFQQTSHESPRLLIKYASQSMSGIPSRFSGSGSGTDFTLSINSVETEDFGMYFCQQTNSWPYTFGGGTKLEIK
modifications: Fab
notes: commercially available monoclonal antibody against platelet glycoprotein gpIIb-IIIa
For the molecule B2, the “effect of the combination on the time to clot” value in assay [1] (0.1 anti-IIa U/ml heparin with 3 μg/ml abciximab, 200 μg/ml CTI, 20 pM tissue factor) is on record as “prolonged the time to clot compared with heparin alone”; in assay [1] (0.4 anti-Xa U/ml enoxaparin with 3 μg/ml abciximab, 200 μg/ml CTI, 20 pM tissue factor) it was “prolonged the time to clot compared with enoxaparin alone”. The “further prolongation of the time to clot compared with heparin alone” value in assay [1] (setting [3]) is 62 s and 61 s. In addition, the “further prolongation of the time to clot compared with enoxaparin alone” value in assay [1] (setting [4]) came out at 52 s. Also, the “prolongation of the time to clot by the combination” value in assay [1] (abciximab 3 μg/ml and heparin in combination) turned out to be 102 s. Further, the “effect on the aPTT of adding abciximab to heparin” value in assay [2] (setting [3]) is reported as “not affected; also recorded: did not prolong further the aPTT; also recorded: did not affect the aPTT”. The “effect on the aPTT of adding abciximab to enoxaparin” value in assay [2] (setting [4]) is “not affected; also recorded: did not prolong further the aPTT”.
